# Data reported in ChEMBL document CHEMBL5252547, “A review of salvinorin analogs and their kappa-opioid receptor activity” (Bioorg Med Chem Lett, 2018).
# Molecular target: Kappa-type opioid receptor (Homo sapiens, UniProt P41145)
# Assay: Inhibition of human kappa opioid receptor assessed as inhibition constant
# Chain of Kappa-type opioid receptor (P41145 whole entry): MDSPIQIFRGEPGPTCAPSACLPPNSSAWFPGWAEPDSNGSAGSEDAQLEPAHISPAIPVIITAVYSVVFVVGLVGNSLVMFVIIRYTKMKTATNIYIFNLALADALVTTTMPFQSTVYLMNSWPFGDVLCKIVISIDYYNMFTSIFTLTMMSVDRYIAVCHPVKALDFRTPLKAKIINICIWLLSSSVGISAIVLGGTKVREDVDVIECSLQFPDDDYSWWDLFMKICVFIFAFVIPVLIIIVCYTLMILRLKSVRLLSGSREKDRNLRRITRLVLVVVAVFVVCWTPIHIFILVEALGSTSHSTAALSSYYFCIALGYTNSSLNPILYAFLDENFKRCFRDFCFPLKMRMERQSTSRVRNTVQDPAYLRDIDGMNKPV
compound,measurement,value
COC(=O)[C@@H]1C[C@H](OC(C)=O)C(=O)[C@H]2[C@@]1(C)CC[C@H]1C(=O)O[C@H](C(=O)Nc3ccccc3)C[C@]21C,Ki,1 µM
